Tested on: benzodiazepine receptors
Test: in vivo displacement of 3H-flunitrazepam from brain benzodiazepine receptors in mice
Design: species or system mice (female, NMR)
Conditions: test substance intraperitoneally 15 min before 3H-FNM i.v., forebrains taken 20 min after 3H-FNM
Method: The ED50 value represents the dose (mg/kg) of a test substance which causes the specific binding of flunitrazepam to benzodiazepine receptors in a living brain to be reduced to 50% of the control value.
Such an in vivo test is carried out as follows:
Results. The ED50 value is determined from dose response curves.

CC(C)n1c(=O)c2c(-c3nc(C4CC4)no3)ncn2c2ccccc21 [Compound 6, 3-(3-cyclopropyl-1,2,4-oxadiazol-5-yl)-4,5-dihydro-5-isopropyl-4-oxo-imidazo[1,5-a] quinoxaline]
ED50 (dose that inhibits 50% of specific 3H-flunitrazepam binding to brain benzodiazepine receptors): 0.28 mg/kg

— US4999354A, “Imidazoquinoxaline compounds and their preparation and use” (A/S Ferrosan, priority 1987, dated 1991)
